We go through 5 compounds from patent US20260049104A1, “PEPTIDES WITH ANTIMICROBIAL PROPERTIES” (priority 2022, published 2026).

By MIC is commonly meant the least concentration at which growth counts as inhibited. Read a low MIC as inhibition by little substance.

Experiment [1] has as its system Gram-positive and Gram-negative bacteria. The note with it: panel of E. coli, K. pneumoniae, E. cloacae, A. baumannii, E. faecalis and S. aureus; preliminary screening. The protocol: (§1) MIC screening of the peptides against a panel of ATCC and clinical strains was performed using broth microdilution method.^1 Briefly, peptides stock solutions in DMSO (0.1/G TFA) were diluted into Mueller Hinton Broth (MHB), followed by two-fold serial dilution in a 96-well plate. Bacteria culture in mid-log phase was diluted into MHB to yield […] colony-forming units (CFU)/mL. Equal volume of the starting inoculum was added to the peptide samples, then incubated for 18-20 h (37° C., 120 rpm). OD600 of the samples was then measured using Tecan Infinite M200 (TECAN, Männedorf, Switzerland). MIC is defined as the lowest peptide concentration to achieve more than 90% reduction in OD600 relative to the drug-free control. The experiments were repeated three times. Colistin-resistant clinical isolates are a kind gift from Dr. Jeanette Koh (National University Hospital, Singapore). Multidrug-resistant clinical isolates are a kind gift from Dr. Lakshminarayanan Rajamani (Singapore Eye Research Institute, Singapore).
(§2) Kanamycin and ampicillin were used as antibacterial control agents. […] Then, sequential 2-fold serial dilutions of the mix were diluted in 50 μL MH broth and 50 μL cell cultures were added to wells. […] All assays were carried out in triplicate.

In another experiment the test system is Klebsiella pneumoniae. Conditions: for MIC value: Table 15, unit inferred. The method, then: as §1, §2
The subject of another experiment is Enterobacter cloacae. Conditions: Table 15, unit inferred. The method, then: as §1, §2
The next experiment deals with Acinetobacter baumannii. The note with it: Table 15, unit inferred. The method, then:
as §1, §2

A further experiment has as its system Escherichia coli. Conditions: Table 15, unit inferred. The method, then:
as §1, §2

In another experiment the test system is Pseudomonas aeruginosa. It is filed as cell-based. The note with it: Table 15, unit inferred. From the text:
The experiments were repeated three times.

Where [2] appears, read: ATCC 25922, printed under Klebsiella pneumoniae.
Setting [3] is: Acinetobacter baumanii ACβA1001.
Setting [4] is: Acinetobacter baumanii ACβA1002.
Where [5] appears, read: Acinetobacter baumanii ACβA1003.
Where [6] appears, read: Acinetobacter baumanii ACβA1004.
Setting [7] is: Pseudomonas aeruginosa DR4877/07.
The mark [8] stands for this setting: Pseudomonas aeruginosa DR5790/07.

In brackets after ≈: the same amount, converted by molar mass. Read-outs that look alike come from different tables or passages of the source.

As for `CC[C@H](C)[C@H](NC(=O)CNC(=O)[C@H](CC(=O)O)NC(=O)[C@H](CC(=O)O)NC(=O)[C@H](CC(=O)O)NC(=O)[C@H](CO)NC(=O)[C@@H](N)CO)C(=O)N[C@H]1Cc2ccc(cc2)C(CCCN)[C@@H](C(=O)N[C@H](C(=O)N[C@H](C(=O)N[C@H]2Cc3c[nH]c4cc(ccc34)C(CCNC(=N)N)[C@@H](C(=O)N[C@@H](CCCNC(=N)N)C(=O)O)NC(=O)[C@H](CC(=O)O)NC2=O)[C@@H](C)O)[C@@H](C)O)NC(=O)[C@H](Cc2ccccc2)NC1=O` (stereo partly drawn) [Compound 22], the antibacterial activity result in experiment [1] was “no activity”.

In the experiment with Klebsiella pneumoniae (Klebsiella pneumoniae ATC 700603, Table 14, preliminary screening), `CC[C@H](C)[C@@H]1NC(=O)[C@@H](NC(=O)[C@H]2NC(=O)[C@H](CC(C)C)NC(=O)[C@@H](NC(=O)[C@H](CCCNC(=N)N)NC(=O)CNC(=O)[C@@H](N)CC(=O)O)Cc3c[nH]c4cc(ccc34)C2CC(N)=O)Cc2c[nH]c3cc(ccc23)C(CCCN)[C@@H](C(=O)N[C@@H](CC(N)=O)C(=O)N[C@@H](Cc2c[nH]cn2)C(=O)O)NC1=O` (stereo partly drawn) [Compound 27] had an MIC of 8 µg/mL (≈ 5.52 µM).

As to `CC(C)[C@@H]1NC(=O)[C@@H](N)Cc2c[nH]c3cc(ccc23)C(C(N)=O)[C@@H](C(=O)N[C@@H](C)C(=O)N[C@H]2Cc3cccc(c3)C(CCNC(=N)N)[C@@H](C(=O)N[C@H]3Cc4c[nH]c5cc(ccc45)C(CCCN)[C@@H](C(=O)N[C@@H](CCCNC(=N)N)C(=O)N[C@@H](Cc4c[nH]c5ccccc45)C(=O)O)NC(=O)[C@H](CO)NC3=O)NC(=O)[C@H](C)NC2=O)NC1=O` (stereo partly drawn) [xenorceptide A12-1], the MIC value was 2 µg/mL (≈ 1.25 µM) against Enterobacter cloacae (Enterobacter cloacae CRE1010); 8 µg/mL (≈ 5 µM) in the experiment on Enterobacter cloacae (Enterobacter cloacae CRE1014); 16 µg/mL (≈ 9.99 µM) with Enterobacter cloacae (Enterobacter cloacae CRE1015); 8 µg/mL (≈ 5 µM) with Enterobacter cloacae (Enterobacter cloacae CRE1016); 16 µg/mL (≈ 9.99 µM) in the experiment with Enterobacter cloacae (Enterobacter cloacae CRE1017); 2 µg/mL (≈ 1.25 µM) in the experiment with Klebsiella pneumoniae (setting [2]). Also, the MIC value was 2 µg/mL (≈ 1.25 µM) in the experiment with Klebsiella pneumoniae (CRE1006, Klebsiella pneumoniae); 2 µg/mL (≈ 1.25 µM) with Klebsiella pneumoniae (Klebsiella pneumoniae CRE 1007); 4 µg/mL (≈ 2.5 µM) with Klebsiella pneumoniae (Klebsiella pneumoniae CRE1008); 4 µg/mL (≈ 2.5 µM) with Klebsiella pneumoniae (Klebsiella pneumoniae CRE1011); 4 µg/mL (≈ 2.5 µM) in the experiment on Klebsiella pneumoniae (Klebsiella pneumoniae CRE1012); 8 µg/mL (≈ 5 µM) in the experiment on Acinetobacter baumannii (setting [3]). The MIC value in the experiment on Acinetobacter baumannii (setting [4]) worked out at 8 µg/mL (≈ 5 µM); in the experiment with Acinetobacter baumannii (setting [5]), 8 µg/mL (≈ 5 µM); in the experiment with Acinetobacter baumannii (setting [6]) it was 8 µg/mL (≈ 5 µM); in the experiment on Escherichia coli (Escherichia coli M2), 8 µg/mL (≈ 5 µM); in the experiment with Escherichia coli (Escherichia coli M6), 2 µg/mL (≈ 1.25 µM); with Escherichia coli (Escherichia coli M10), 2 µg/mL (≈ 1.25 µM). Also, the MIC value against Escherichia coli (Escherichia coli M11) was 2 µg/mL (≈ 1.25 µM); in the experiment on Pseudomonas aeruginosa (Pseudomonas aeruginosa DM4150R) it was 32 µg/mL (≈ 20 µM); against Pseudomonas aeruginosa (Pseudomonas aeruginosa DM23376), > 32 µg/mL; against Pseudomonas aeruginosa (setting [7]), 32 µg/mL (≈ 20 µM); against Pseudomonas aeruginosa (setting [8]), 32 µg/mL (≈ 20 µM).

With “Xenorceptide B1 (GDRWLKWIKNH; listed as Photorhabdus laumondii)”, the MIC value in the experiment with Enterobacter cloacae (Enterobacter cloacae ATCC 13047), against Enterobacter cloacae (Enterobacter cloacae CRE1010), in the experiment with Enterobacter cloacae (Enterobacter cloacae CRE1014), with Enterobacter cloacae (Enterobacter cloacae CRE1015), with Enterobacter cloacae (Enterobacter cloacae CRE1016) and against Enterobacter cloacae (Enterobacter cloacae CRE1017) was > 32 µg/mL in each case. Also, the MIC value is > 32 µg/mL in the experiment on Klebsiella pneumoniae (setting [2]); > 32 µg/mL against Klebsiella pneumoniae (CRE1006, Klebsiella pneumoniae); > 32 µg/mL in the experiment with Klebsiella pneumoniae (Klebsiella pneumoniae CRE 1007); > 32 µg/mL with Klebsiella pneumoniae (Klebsiella pneumoniae CRE1008); > 32 µg/mL against Klebsiella pneumoniae (Klebsiella pneumoniae CRE1011); > 32 µg/mL in the experiment on Klebsiella pneumoniae (Klebsiella pneumoniae CRE1012). In addition, the MIC value in the experiment on Acinetobacter baumannii (setting [3]), against Acinetobacter baumannii (setting [4]), with Acinetobacter baumannii (setting [5]), against Acinetobacter baumannii (setting [6]), with Acinetobacter baumannii (Acinetobacter baumanii ATCC 19606) and in the experiment with Escherichia coli (Escherichia coli M2) was > 32 µg/mL throughout. In addition, the MIC value against Escherichia coli (Escherichia coli M6), with Escherichia coli (Escherichia coli M10), against Escherichia coli (Escherichia coli M11), in the experiment on Pseudomonas aeruginosa (Pseudomonas aeruginosa DM4150R), in the experiment on Pseudomonas aeruginosa (Pseudomonas aeruginosa DM23376) and in the experiment with Pseudomonas aeruginosa (setting [7]) was > 32 µg/mL throughout. For the same compound, in the experiment with Pseudomonas aeruginosa (setting [8]), the MIC value is > 32 µg/mL.

In the case of `CC(C)[C@H](NC(=O)[C@H](Cc1c[nH]c2ccccc12)NC(=O)CNC(=O)[C@H](CCC(=O)O)NC(=O)CNC(=O)[C@@H](N)CCCNC(=N)N)C(=O)N[C@@H](CCCNC(=N)N)C(=O)N[C@@H](C)C(=O)N[C@@H](Cc1ccc(O)cc1)C(=O)N[C@H]1Cc2c[nH]c3cc(ccc23)C(CCCN)[C@@H](C(=O)N[C@@H](CCCNC(=N)N)C(=O)N[C@@H](Cc2ccccc2)C(=O)O)NC(=O)[C@H](C)NC1=O` (stereo partly drawn) [Compound 25], in experiment [1], the antibacterial activity result was “also active against these test bacteria, but weaker than 24”.
